Each structure is given as a SMILES string. Some results are limits rather than exact numbers.

Assay [1] deals with HCV replicon I389luc-ubi-neo/NS3-3′/ET in ET (Huh-lucubineo-ET) cells. Briefly: Replicon assay (Biological Example 2), luciferase readout. Type of assay: cell-based. The following applies: Hepatitis C virus. In outline: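 EC50 values come from Hill fits of % inhibition of replicon-driven firefly luciferase, relative to no-compound wells. Compounds were serially diluted (10 points, 3-fold, 0.1 nM–50 μM final, 0.5% DMSO) onto ET replicon cells and read after 48 h.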

In the next assay the target is T1, HCV polymerase (Hepatitis C virus genotype 1b, UniProt Q9WMX2).
T1 construct: (His)6 (C); made in house; host or cells: XL-1 cells (E. coli, by own knowledge)
Briefly: Polymerase assay of Biological Example 1 (IC50 values of Table 3). Format: biochemical. The following applies: IC50 values of Table 3, polymerase assay of Biological Example 1; read-out: NS5B-enzyme3.

Setting [2] is: ET cells, luciferase activity 48 hours after compound.

In the case of `CN(C)c1ccc(-c2ccc(S(=O)(=O)N3CC(=O)N(c4cc(-c5ccccc5)sc4C(=O)O)[C@H](C4CCCCC4)C3)cn2)cc1` [Compound 203, 3-{(R)-2-Cyclohexyl-4-[6-(4-dimethylamino-phenyl)-pyridine-3-sulfonyl]-6-oxo-piperazin-1-yl}-5-phenyl-thiophene-2-carboxylic acid], the IC50 in assay [1] (setting [2]) is no more than 0.1 µM; on HCV polymerase it was 0.001 µM.
Take `O=C(O)c1sc(-c2ccccc2)cc1N1C(=O)CN(Cc2ccccc2)C[C@H]1C1CCCCC1` [Compound 17, 3-((R)-4-Benzyl-2-cyclohexyl-6-oxo-piperazin-1-yl)-5-phenyl-thiophene-2-carboxylic acid]: the IC50 is 0.1 to 5 µM in assay [1] (between 100 nM and 5.0 uM); 0.024 µM at HCV polymerase.
For the molecule `Cc1ccc(-c2cc(N3C(=O)C(C)(C)OC[C@H]3C3CCCCC3)c(C(=O)O)s2)cc1` [Compound 314, 3-((R)-5-Cyclohexyl-2,2-dimethyl-3-oxo-morpholin-4-yl)-5-p-tolyl-thiophene-2-carboxylic acid], the IC50 in assay [1] (setting [2]) was no more than 0.1 µM; at HCV polymerase it was 0.006 µM.
In the same order, the values of `C[C@@H]1CN(c2ccc(S(=O)(=O)N3CC(=O)N(c4cc(-c5ccccc5)sc4C(=O)O)[C@H](C4CCCCC4)C3)cn2)C[C@H](C)O1` [Compound 167, 3-{(R)-2-Cyclohexyl-4-[6-((2R,6S)-2,6-dimethyl-morpholin-4-yl)-pyridine-3-sulfonyl]-6-oxo-piperazin-1-yl}-5-phenyl-thiophene-2-carboxylic acid] are no more than 0.1 µM and 0.0035 µM.
Taken in the same sequence, the figures for `COCCNc1ccc(S(=O)(=O)N2CC(=O)N(c3cc(-c4ccccc4)sc3C(=O)O)C(C3CCCCC3)C2)cn1` (centres unmarked) [Compound 78, 3-{2-Cyclohexyl-4-[6-(2-methoxy-ethylamino)-pyridine-3-sulfonyl]-6-oxo-piperazin-1-yl}-5-phenyl-thiophene-2-carboxylic acid] were no more than 0.1 µM and 0.005 µM.
On to `Cc1occc1-c1ccc(S(=O)(=O)N2CC(=O)N(c3cc(-c4ccccc4)sc3C(=O)O)[C@H](C3CCCCC3)C2)cn1` [Compound 211, 3-{(R)-2-Cyclohexyl-4-[6-(2-methyl-furan-3-yl)-pyridine-3-sulfonyl]-6-oxo-piperazin-1-yl}-5-phenyl-thiophene-2-carboxylic acid], for which the IC50 is 0.1 to 5 µM in assay [1] (between 100 nM and 5.0 uM); 0.002 µM on HCV polymerase.
In the same order, the values of `Cc1ncc(S(=O)(=O)N2CC(=O)N(c3cc(C#CC(C)(C)C)sc3C(=O)O)[C@H](C3CCCCC3)C2)n1C` [Compound 255, 3-[(R)-2-Cyclohexyl-4-(2,3-dimethyl-3H-imidazole-4-sulfonyl)-6-oxo-piperazin-1-yl]-5-(3,3-dimethyl-but-1-ynyl)-thiophene-2-carboxylic acid] are 0.1 to 5 µM and 0.005 µM.
In the same order, the values of `Cc1ccc(-c2cc(N3C(=O)C(C)(O)CCC3C3CCCCC3)c(C(=O)O)s2)cc1` (centres unmarked) [Compound 324, 3-(6-Cyclohexyl-3-hydroxy-3-methyl-2-oxo-piperidin-1-yl)-5-p-tolyl-thiophene-2-carboxylic acid] are 0.1 to 5 µM and 0.085 µM.
Taken in the same sequence, the figures for `CCc1ccc(-c2cc(N3C(=O)CCCC3C3CCCCC3)c(C(=O)O)s2)cc1` (centres unmarked) [Compound 72, 3-(2-Cyclohexyl-6-oxo-piperidin-1-yl)-5-(4-ethyl-phenyl)-thiophene-2-carboxylic acid] were 0.1 to 5 µM and 0.064 µM.
On to `C[C@@H]1CCCCN1c1ccc(S(=O)(=O)N2CC(=O)N(c3cc(-c4ccccc4)sc3C(=O)O)[C@H](C3CCCCC3)C2)cn1` [Compound 183, 3-[(R)-2-Cyclohexyl-4-((R)-2-methyl-3,4,5,6-tetrahydro-2H-[1,2′]bipyridinyl-5′-sulfonyl)-6-oxo-piperazin-1-yl]-5-phenyl-thiophene-2-carboxylic acid], for which the IC50 in assay [1] (setting [2]) was no more than 0.1 µM; at HCV polymerase it was 0.0018 µM.

These data come from patent US9498483B2, “2,3,5-trisubstituted thiophene compounds and uses thereof” (priority 2010, dated 2016).
